Measurements as given in US20220170028A1, “NOVEL INTERLEUKIN-2 VARIANTS AND BIFUNCTIONAL FUSION MOLECULES THEREOF” (Cugene Inc, priority 2019, published 2022).
“Also recorded” adds a separate entry of the source.

Tests used:
Format in all cases: cell-based
[1] = system: STAT5 phosphorylation in CD4+ Treg cells; test: STAT5 phosphorylation in CD4+ Treg cells, human PBMC assay by FACS
Text: (§1) Single amino acid substitutions were introduced to IL-2 at positions corresponding to amino acids interacting with receptor subunit(s) β or γ or βγ. These substitutions were aimed to reduce IL-2 signaling capacity through the intermediate affinity IL-2Rβγ complex and confer signaling specificity from the high affinity IL-2Rαβγ. IL-2 variants containing single amino acid substitutions were examined for their ability to differentially stimulate STAT5 phosphorylation in CD4 positive Treg and Tconv cells. STAT5 is known to be involved in the downstream signaling cascade upon IL-2 binding to the transmembrane IL-2 receptors. The phosphorylation of STAT5 in defined lymphocyte subpopulations was measured using fresh human peripheral blood mononuclear cells (PBMC) and the forkhead transcription factor FOXP3 was used to identify the Treg population in FACS analysis.
(§2) Briefly, human PBMC were isolated by Ficoll-Hypaque centrifugation from the buffy coat of a healthy donor. PBMC were starved in serum-free MACS buffer at 4° C. for 1 hour. 2×10^5 PBMC were then treated with serial dilutions of test compounds for 30 min at 37° C. Cells were fixed and permeabilized with Foxp3/Transcription Factor Staining Buffer Set (EBIO) by incubating with 1× Foxp3 fixation/permeabilization working solution for 30 minutes and washing with 1× permeabilization buffer. Cells were additionally fixed with Cytofix buffer and permeabilized with Perm Buffer III (BD Biosciences) and then washed. After blocking Fc receptors by adding human TruStain FcX (1:50 dilution), cells were stained with a mixture of anti-CD25-PE, anti-FOXP3-APC, anti-pSTAT5-FITC, and anti-CD4-PerCP-Cy5.5 antibodies at concentrations recommended by the manufacturer for 45 minutes at room temperature. Cells were collected by centrifugation, washed, resuspended in FACS buffer, and analyzed by flow cytometry. The flow cytometry data was gated into CD4+/Foxp3+/CD25^high and CD4+/Foxp3−/CD25^low groups for the Treg and CD4 conventional T cell subsets, respectively. Data are expressed as a percent of pStat5 positive cells in gated population.

[2] = system: STAT5 phosphorylation in CD4+ Tconv cells; test: STAT5 phosphorylation in CD4+ Tconv cells, human PBMC assay by FACS
Text: as §1, §2

[3] = system: CD4+ Treg vs CD4+ Tconv cells; test: STAT5 phosphorylation, selectivity / activity profile Treg versus CD4+ Tconv cells, human PBMC
Text: as §1, §2
The S125I substitution was then introduced into wild-type IL-2 or IL-2 variants that already harbored 1 or 2 mutations targeting receptor subunit(s) β or γ or βγ. The resulting IL-2 variants containing isoleucine at position 125 were tested for their ability to stimulate STAT5 phosphorylation in Treg and Tconv cells in comparison with their respective serine counterparts at position 125. Table 7 lists the potency and selectivity of IL-2 variants in Treg cells. The two molecules in the same row of Table 7 share the same other amino acid substitution(s) and differ only at position 125 with either serine or isoleucine.

Row | Substance | STAT5 phosphorylation activity in Treg cells (in words) [1] | STAT5 phosphorylation activity in CD4+ Tconv cells (in words) [2] | activity profile / selectivity window Treg over CD4+ Tconv (in words) [3] | also measured
1 | P-0863: Fc fusion, 7 amino acid N-terminal deletion of P-0511 IL-2 variant (Table 4H prints L19D), SEQ ID NO: 303 | fully retained potency | – | – | –
2 | P-0694: Tocilizumab IL-2 L19H/S125I/Q126D bivalent fusion, SEQ ID NOs 253 + 308 | reduced potency | essentially abolished | wide selectivity window | –
3 | P-0860: IL-2 L19D/S125I/Q126E Fc fusion, SEQ ID NO: 300 | different levels of potency attenuation | – | – | maximum possible effect / signaling amplitude of STAT5 phosphorylation in Treg cells [1]: strikingly lower
4 | P-0697: Tocilizumab IL-2 L19H/S125I/Q126N bivalent fusion, SEQ ID NOs 253 + 310 | – | – | did not impair the protein activity nor improve the Treg selectivity | –
5 | P-0698: Tocilizumab IL-2 L19H/S125I/Q126R bivalent fusion, SEQ ID NOs 253 + 311 | – | – | did not impair the protein activity nor improve the Treg selectivity | –
6 | P-0303: IL-2 Q126E Fc fusion, SEQ ID NO: 90 | minimally impacted the pSTAT5 activation potency | – | modestly improved selective window | –
7 | P-0699: Tocilizumab IL-2 L19H/S125I/Q126S bivalent fusion, SEQ ID NOs 253 + 312 | – | – | did not impair the protein activity nor improve the Treg selectivity | –
8 | P-0374: IL-2 L19R Fc fusion, SEQ ID NO: 83 | – | largely retained the biological activity | – | –
9 | P-0367: IL-2 D20S Fc fusion, SEQ ID NO: 78 | ability to induce STAT5 phosphorylation | largely diminished or abolished | – | –
10 | P-0700: Tocilizumab IL-2 L19H/S125I/Q126T bivalent fusion, SEQ ID NOs 253 + 307 | – | – | did not impair the protein activity nor improve the Treg selectivity | –
11 | P-0859: IL-2 L19N/S125I/Q126E Fc fusion, SEQ ID NO: 306 | different levels of potency attenuation | – | – | maximum possible effect / signaling amplitude of STAT5 phosphorylation in Treg cells [1]: moderately reduced
12 | P-0322: IL-2 D20T/Q126E Fc fusion, SEQ ID NO: 99 | pronounced reduced potency | – | – | –
13 | P-0464: IL-2 L19Y/Q126K Fc fusion, SEQ ID NO: 176 | retained comparable potency | varied significantly | – | –
14 | P-0862: Fc fusion, 5 amino acid N-terminal deletion of P-0511 IL-2 variant (Table 4H prints L19D), SEQ ID NO: 302 | fully retained potency | – | – | –
15 | P-0449: IL-2 L19S/Q126E Fc fusion, SEQ ID NO: 175 | significant potency | largely abolished | on par with Benchmark-2 | –
16 | P-0448: IL-2 L19Q/Q126E Fc fusion, SEQ ID NO: 174 | significant potency | largely abolished | on par with Benchmark-2 | –

Row | Substance | STAT5 phosphorylation activity in Treg cells (in words) [1] | STAT5 phosphorylation activity in CD4+ Tconv cells (in words) [2] | activity profile / selectivity window Treg over CD4+ Tconv (in words) [3] | also measured
17 | P-0536: Tocilizumab IL-2 L19H/S125I/Q126E bivalent fusion, SEQ ID NOs 253 + 255 | slightly higher activity than its monomeric equivalent P-0546 | – | – | –
18 | P-0695: Tocilizumab IL-2 L19H/S125I/Q126H bivalent fusion, SEQ ID NOs 253 + 309 | – | – | did not impair the protein activity nor improve the Treg selectivity | –
19 | P-0474: IL-2 L19Y/Q22K Fc fusion, SEQ ID NO: 186 | retained comparable potency | varied significantly | – | –
20 | P-0590: Tocilizumab IL-2 L19N/S125I/Q126E bivalent fusion, SEQ ID NOs 253 + 267 | reduced potency | – | – | maximum possible effect / signaling amplitude of STAT5 phosphorylation in Treg cells [1]: lower signaling amplitude
21 | P-0365: IL-2 D20N Fc fusion, SEQ ID NO: 76 | ability to induce STAT5 phosphorylation | largely diminished or abolished | – | –
22 | P-0427: IL-2 L19S Fc fusion, SEQ ID NO: 156 | – | largely retained the biological activity | – | –
23 | P-0417: IL-2 L19N/Q126E Fc fusion, SEQ ID NO: 103 | pronounced reduced potency | – | – | –
24 | P-0368: IL-2 D20Y Fc fusion, SEQ ID NO: 79 | no biological activity | no biological activity | – | –
25 | P-0373: IL-2 L19N Fc fusion, SEQ ID NO: 82 | – | reduced | wide window for selective targeting of Treg subset; also recorded: some or significant biased selective window | –
26 | P-0559: Tocilizumab IL-2 D20Q/S125I bivalent fusion, SEQ ID NOs 253 + 265 | reduced potency | essentially abolished | selective activation of Treg cells over CD4+ Tconv cells | –
27 | P-0588: Tocilizumab IL-2 D20S/S125I bivalent fusion, SEQ ID NOs 253 + 257 | reduced potency | – | – | –
28 | P-0366: IL-2 D20Q Fc fusion, SEQ ID NO: 77 | ability to induce STAT5 phosphorylation | largely diminished or abolished | – | –
29 | P-0423: IL-2 L19Q Fc fusion, SEQ ID NO: 152 | – | largely retained the biological activity | – | –
30 | P-0589: Tocilizumab IL-2 D20N/S125I bivalent fusion, SEQ ID NOs 253 + 258 | reduced potency | – | – | –
31 | P-0480: IL-2 L19H/Q126K Fc fusion, SEQ ID NO: 189 | – | – | – | Treg Selectivity ([3]; Serine-125 constructs): Yes
